Test results as given in PubChem BioAssay AID206 (DTP/NCI, 2004).
“And” between values parts separate entries of the source, which are not always exact repeats. Identical values can stand only once. Records with an inconclusive call do not appear.

Tested on: nude mice, HT29 intrarenal xenograft, tumor weight T/C
Experiment: NCI In Vivo Anticancer Drug Screen. Data for tumor model HT29;CX-1 Human Adenocarcinoma (MER+) (intrarenal inoculation) in NU/NU Swiss (nude) mice
Conditions: endpoint: mean tumor weight change, higher = larger tumour
Protocol: The antitumor activity of compounds was measured in mice bearing transplantable tumors. Survival or tumor size were measured and the results are expressed as the measurement made in the treated group (T) divided by the measurement made in the vehicle treated control group (C). The tumor model used in this assay is HT29;CX-1 Human Adenocarcinoma (MER+) (intrarenal inoculation) in NU/NU Swiss (nude) mice

[1] = dose: 50.0 mg/kg/injection, schedule: Q04DX004 (sc), vehicle: saline with Tween-80
[2] = dose: 100.0 mg/kg/injection, schedule: Q01DX010 (sc), vehicle: saline with Tween-80
[3] = dose: 50.0 mg/kg/injection, schedule: Q04DX004 (sc), vehicle: saline + alcohol
[4] = dose: 150.0 mg/kg/injection, schedule: Q04DX004 (sc), vehicle: Klucel (hydroxypropylcellulose) (HPC)
[5] = dose: 300.0 mg/kg/injection, schedule: Q04DX004 (sc), vehicle: Klucel (hydroxypropylcellulose) (HPC)
[6] = dose: 600.0 mg/kg/injection, schedule: Q04DX004 (sc), vehicle: Klucel (hydroxypropylcellulose) (HPC)
[7] = dose: 150.0 mg/kg/injection, schedule: Q04DX004 (sc), vehicle: saline
[8] = dose: 300.0 mg/kg/injection, schedule: Q04DX004 (sc), vehicle: saline
[9] = dose: 600.0 mg/kg/injection, schedule: Q04DX004 (sc), vehicle: saline

COCC1OC2OC3C(COC)OC(OC4C(COC)OC(OC5C(COC)OC(OC6C(COC)OC(OC7C(COC)OC(OC8C(COC)OC(OC1C(O)C2O)C(O)C8O)C(O)C7O)C(O)C6O)C(O)C5O)C(O)C4O)C(O)C3O (configuration not stated) (tested in a mixture with another compound) was tested, and the T/C (dose: 100.0 mg/kg/injection, schedule: Q04DX004 (sc), vehicle: Klucel (hydroxypropylcellulose) (HPC)) was 116 % of control and the T/C (dose: 200.0 mg/kg/injection, schedule: Q04DX004 (sc), vehicle: Klucel (hydroxypropylcellulose) (HPC)) was 67 % of control.
With CN=C(N)N/N=C(\c1ccccc1)c1ccc(Br)cc1 the T/C [1] was 90 % of control and 92 % of control and 104 % of control.
S=C=NCCc1ccccc1 was tested, and the T/C [2] was 57 % of control (2×) and 61 % of control.
For COC1CC(C)C(OC)c2cc(O)cc(c2O)NC(=O)/C(C)=C/C=C\C(C)C(OC(N)=O)/C(C)=C\C(C)C1OC (configuration not stated), the T/C [3] was 113 % of control.
CCN1/C(=C/C=C/C=C/c2sc3ccccc3[n+]2CC)Sc2ccccc21 was tested, and the T/C (dose: 0.38 mg/kg/injection, schedule: Q04DX004 (sc), vehicle: suspension in saline) was 77 % of control, the T/C (dose: 0.75 mg/kg/injection, schedule: Q04DX004 (sc), vehicle: suspension in saline) was 72 % of control and the T/C (dose: 1.5 mg/kg/injection, schedule: Q04DX004 (sc), vehicle: suspension in saline) was 104 % of control. For the same molecule, the T/C (dose: 3.0 mg/kg/injection, schedule: Q04DX004 (sc), vehicle: suspension in saline) was 89 % of control.
In the case of COC1CC(C)C(OC)C2=CC(=O)C=C(NC(=O)/C(C)=C/C=C\C(C)C(OC(N)=O)/C(C)=C\C(C)C1OC)C2=O (configuration not stated), the T/C (dose: 12.5 mg/kg/injection, schedule: Q04DX004 (sc), vehicle: saline + alcohol) is reported as 99 % of control, the T/C (dose: 25.0 mg/kg/injection, schedule: Q04DX004 (sc), vehicle: saline + alcohol) is reported as 73 % of control and the T/C [3] is reported as 53 % of control.
In the case of Cc1ccc(NCCN(C)C)c2c(=O)c3cc(O)ccc3sc12, the T/C (dose: 225.0 mg/kg/injection, schedule: Q04DX004 (sc), vehicle: Klucel (hydroxypropylcellulose) (HPC)) is reported as 81 % of control, the T/C (dose: 450.0 mg/kg/injection, schedule: Q04DX004 (sc), vehicle: Klucel (hydroxypropylcellulose) (HPC)) is reported as 64 % of control and the T/C (dose: 900.0 mg/kg/injection, schedule: Q04DX004 (sc), vehicle: Klucel (hydroxypropylcellulose) (HPC)) is reported as 99 % of control. For the same molecule, the T/C (dose: 1800.0 mg/kg/injection, schedule: Q04DX004 (sc), vehicle: Klucel (hydroxypropylcellulose) (HPC)) was 68 % of control.
With O=C(CC(=O)C(F)(F)F)c1csc2ccccc12 the T/C [4] was 116 % of control, the T/C [5] was 73 % of control and the T/C [6] was 87 % of control.
COc1cc(C(=O)c2cc3c(cc2C)OCO3)cc(OC)c1OC was tested, and the T/C [5] was 83 % of control, the T/C [6] was 64 % of control and the T/C (dose: 1200.0 mg/kg/injection, schedule: Q04DX004 (sc), vehicle: Klucel (hydroxypropylcellulose) (HPC)) was 82 % of control.
For O=C(O)CCCCCCCC(=O)O, the T/C (dose: 600.0 mg/kg/injection, schedule: Q04DX004 (sc), vehicle: distilled water + Tween-80) was 67 % of control and the T/C (dose: 2400.0 mg/kg/injection, schedule: Q04DX004 (sc), vehicle: distilled water + Tween-80) was 113 % of control.
In the case of CC(C)NC(=O)OCc1c(COC(=O)NC(C)C)c(-c2ccc(Cl)c(Cl)c2)n2c1CCC2, the T/C (dose: 25.0 mg/kg/injection, schedule: Q01DX010 (sc), vehicle: distilled water + Tween-80) is reported as 107 % of control, the T/C (dose: 50.0 mg/kg/injection, schedule: Q01DX010 (sc), vehicle: distilled water + Tween-80) is reported as 15 % of control and the T/C (dose: 200.0 mg/kg/injection, schedule: Q01DX010 (sc), vehicle: distilled water + Tween-80) is reported as 60 % of control and 78 % of control. The T/C (dose: 800.0 mg/kg/injection, schedule: Q01DX010 (sc), vehicle: distilled water + Tween-80) was 44 % of control.
For CN=C(N)N/N=C(\C)c1ccc2c(c1)Cc1cc(/C(C)=N/NC(N)=NC)ccc1-2, the T/C (dose: 25.0 mg/kg/injection, schedule: Q04DX004 (sc), vehicle: saline with Tween-80) was 102 % of control, the T/C [1] was 53 % of control and the T/C (dose: 100.0 mg/kg/injection, schedule: Q04DX004 (sc), vehicle: saline with Tween-80) was 105 % of control. The T/C (dose: 200.0 mg/kg/injection, schedule: Q04DX004 (sc), vehicle: saline with Tween-80) was 50 % of control.
In the case of O=C(O)CC(NC(=O)CP(=O)(O)O)C(=O)O.[NH-]C1CCCCC1[NH-].[Pt+2] (configuration not stated), the T/C (dose: 6.25 mg/kg/injection, schedule: Q04DX004 (sc), vehicle: dextrose) is reported as 97 % of control, the T/C (dose: 12.5 mg/kg/injection, schedule: Q04DX004 (sc), vehicle: dextrose) is reported as 25 % of control and the T/C (dose: 25.0 mg/kg/injection, schedule: Q04DX004 (sc), vehicle: dextrose) is reported as 35 % of control.
CS(=O)(=O)CS(=O)(=O)OCCCl was tested, and the T/C (dose: 37.5 mg/kg/injection, schedule: Q04DX004 (sc), vehicle: suspension in saline) was 363 % of control, the T/C (dose: 75.0 mg/kg/injection, schedule: Q04DX004 (sc), vehicle: suspension in saline) was 187 % of control and the T/C (dose: 150.0 mg/kg/injection, schedule: Q04DX004 (sc), vehicle: suspension in saline) was 150 % of control.
In the case of O=[Te]=O, the T/C (dose: 25.0 mg/kg/injection, schedule: Q04DX004 (sc), vehicle: Klucel (hydroxypropylcellulose) (HPC)) is reported as 170 % of control and the T/C (dose: 50.0 mg/kg/injection, schedule: Q04DX004 (sc), vehicle: Klucel (hydroxypropylcellulose) (HPC)) is reported as 74 % of control.
With N=C(N)Sc1ccccn1 the T/C (dose: 50.0 mg/kg/injection, schedule: Q01DX010 (sc), vehicle: saline) was 89 % of control, the T/C (dose: 100.0 mg/kg/injection, schedule: Q01DX010 (sc), vehicle: saline) was 100 % of control and the T/C (dose: 200.0 mg/kg/injection, schedule: Q01DX010 (sc), vehicle: saline) was 41 % of control. For the same molecule, the T/C (dose: 400.0 mg/kg/injection, schedule: Q01DX010 (sc), vehicle: saline) was 74 % of control.
With NC(N)=NOCC[C@@H](N)C(=O)O the T/C [7] was 108 % of control, the T/C [8] was 75 % of control and the T/C [9] was 76 % of control. The T/C (dose: 1200.0 mg/kg/injection, schedule: Q04DX004 (sc), vehicle: saline) was 62 % of control.
CCCCCCCCCCCCCCCCS(=O)CC(O)COC(=O)c1ccc(C(=O)OCC(O)CS(=O)CCCCCCCCCCCCCCCC)cc1 (configuration not stated) was tested, and the T/C (dose: 50.0 mg/kg/injection, schedule: Q01DX010 (sc), vehicle: saline + Tween-80 + alcohol) was 114 % of control and the T/C (dose: 400.0 mg/kg/injection, schedule: Q01DX010 (sc), vehicle: saline + Tween-80 + alcohol) was 93 % of control and 110 % of control.
With [Cl][Sn]([c]1ccccc1)[c]1ccccc1 the T/C (dose: 75.0 mg/kg/injection, schedule: Q04DX004 (sc), vehicle: saline) was 59 % of control, the T/C [7] was 67 % of control and the T/C [8] was 63 % of control. For the same molecule, the T/C [9] was 62 % of control.
With CC(/C=C/c1ccccc1)=Nc1ccccc1 the T/C (dose: 75.0 mg/kg/injection, schedule: Q04DX004 (sc), vehicle: saline with Tween-80) was 58 % of control, the T/C (dose: 150.0 mg/kg/injection, schedule: Q04DX004 (sc), vehicle: saline with Tween-80) was 98 % of control and the T/C (dose: 300.0 mg/kg/injection, schedule: Q04DX004 (sc), vehicle: saline with Tween-80) was 50 % of control. For the same molecule, the T/C (dose: 600.0 mg/kg/injection, schedule: Q04DX004 (sc), vehicle: saline with Tween-80) was 63 % of control.
In the case of O=NN(CCCl)C(=O)NC1[C@H](O)CCC[C@@H]1O (some centres not stated), the T/C (dose: 10.0 mg/kg/injection, schedule: Q04DX004 (sc), vehicle: saline) is reported as 90 % of control.
In the case of Clc1ccc(C2SC=Cc3ccccc32)cc1 (configuration not stated), the T/C [6] is reported as 48 % of control.
CCOC(C)C(/C=N/NC(N)=S)=NNC(N)=S (configuration not stated) was tested, and the T/C [2] was 76 % of control, the T/C (dose: 200.0 mg/kg/injection, schedule: Q01DX010 (sc), vehicle: saline with Tween-80) was 49 % of control and the T/C (dose: 400.0 mg/kg/injection, schedule: Q01DX010 (sc), vehicle: saline with Tween-80) was 68 % of control.
In the case of NC(CCC(=O)NC(CS)C(=O)NCC(=O)O)C(=O)O (configuration not stated), the T/C [7] is reported as 78 % of control, the T/C [8] is reported as 168 % of control and the T/C [9] is reported as 87 % of control.
In the case of COc1ccc2[nH]c3ccc4cc[n+](CCN5CCC(C6CCN(CC[n+]7ccc8ccc9[nH]c%10ccc(OC)cc%10c9c8c7)CC6)CC5)cc4c3c2c1, the T/C [4] is reported as 194 % of control, the T/C [5] is reported as 189 % of control and the T/C [6] is reported as 83 % of control.
With C1CN(P2(N3CC3)=NP(N3CC3)(N3CC3)=NP(N3CC3)(N3CC3)=N2)CCO1 (configuration not stated) the T/C (dose: 6.25 mg/kg/injection, schedule: Q01DX010 (sc), vehicle: saline) was 50 % of control, the T/C (dose: 12.5 mg/kg/injection, schedule: Q01DX010 (sc), vehicle: saline) was 52 % of control and the T/C (dose: 25.0 mg/kg/injection, schedule: Q01DX010 (sc), vehicle: saline) was 27 % of control.
